Patent EP0168658A1, “Pyrrolecarboxylic acid derivative having analgesic activity, preparation thereof and compositions therefrom” (POLI INDUSTRIA CHIMICA S.p.A., priority 1984, dated 1986)
Like-named read-outs stand apart in the source and are kept apart here.

Key:
mouse [1] = assay: Phenylquinone test, analgesic activity by the oral route; type: in vivo
Procedure: (§1) The analgesic activity of the compound of formula I by the oral route, has been determined in the mouse using the following tests: • - Phenylquinone test (Hendershot and Forsaith - J. Pharma- col. Exptl. Ther. 123, 237 (1959)); • - Hot-plate test. Male albino mice, treated with increasing doses of the compound under exam, are placed on a plate thermostatized at 55°C. An effective dose 50 (ED50) is defined as the dose inducing a 50% increase of the reaction time to the pain stimulus.

Male albino mice = assay: Hot-plate test (plate at 55°C), analgesic activity by the oral route; type: in vivo, mouse; conditions: read-out: Hot place EX50
Procedure: as §1

cyclooxygenase [2] = conditions: background statement on the known drug; cited from earlier work
[3] = test system: prostaglandine-synthetase; conditions: background statement on the known drug; cited from earlier work
Acute toxicity per os = conditions: in vivo, po, mouse, at the 14th observation day
From the text: The acute toxicity per os is expressed as LD50 at the 14th observation day.

mouse [4] = assay: Jumping by nalorphine (physical addiction); type: in vivo
cyclooxygenase [5] = assay: Cyclooxygenase inhibitory activity; type: biochemical
[6] = test system: prostaglandine-synthetase; assay: Prostaglandine-synthetase inhibitory activity; type: biochemical

Structure (SMILES): COc1ccc2c3c1O[C@H]1[C@@H](O)C=C[C@H]4[C@@H](C2)N(C)CC[C@@]341.Cl [Codeine HCl, codeine hydrochloride, reference compound]
- ED50 (mouse [1]): 5.6 mg/kg
- ED50 (Male albino mice; Mus musculus, po): 25 mg/kg

Structure (SMILES): Cc1cc(CC(=O)O)n(C)c1C(=O)c1ccc(Cl)cc1 [zomepirac, 5-(p-chlorobenzoyl)-l,4-dimethylpyrrole-2-acetic acid]
- capacity of inhibiting cyclooxygenase (cyclooxygenase [2]): capacity of inhibiting the enzymes cyclooxygenase and prostaglandine-synthetase
- capacity of inhibiting prostaglandine-synthetase [3]: capacity of inhibiting the enzymes cyclooxygenase and prostaglandine-synthetase

Structure (SMILES): Cc1c(C(=O)O)c(C)n(C)c1C(=O)c1ccc(F)cc1 [Compound I, 5-(4-fluoro-benzoyl)-1,2,4-trimethyl-3-pyrrolcarboxylic acid]
- ED50 (mouse [1]): 2.1 mg/kg
- ED50 (Male albino mice; mouse, oral route, plate at 55°C, dose inducing a 50% increase of the reaction time to the pain stimulus): 3.5 mg/kg
- LD50 at 336 h (Acute toxicity per os): > 1600 mg/kg
- jumping by nalorphine (mouse [4]): does not induce
- cyclooxygenase inhibitory activity (cyclooxygenase [5]): without cyclooxygenase and prostaglandine-synthetase inhibitory activity
- prostaglandine-synthetase inhibitory activity [6]: without cyclooxygenase and prostaglandine-synthetase inhibitory activity
